Holding throughout (assay type): cell-based
Experiment [1] relates to LOU-NH91 cells. The experiment in a line: LOU-NH91 proliferation and cell viability assay (CTG). Particulars: LOU-NH91 cell line, 216 hours. How it is done:
LOU-NH91 cells were trypsinised, counted and plated at the specified cell density in 200 μl of growth media in 96 well flat bottom tissue culture treated plates. The plated cells were incubated overnight at 37° C., 5% CO2 before being treated with compounds in triplicate for each assay point. 50 μl of the serially diluted compound was added to each well giving a final DMSO concentration of 0.5% per well and a total volume of 250 μl per well. The treated cells were incubated for 216 hours (9 days) at 37° C., 5% CO2. Following compound treatment, the remaining viable cells were detected using the Promega CellTiter-Glo 2.0 assay as follows: 150 μl of media was removed from each of the wells to be assayed and 100 μl of room temperature CellTiter-Glo 2.0 reagent was added. The plate was placed on an orbital shaker at 500 rpm at room temperature for 2 minutes, and then incubated without shaking for a further 10 minutes at room temperature. 150 μl of cell lysate was removed from each well and dispensed into a single well of a white opaque 96 well plate. Luminescence at 545 nm was read using a BMG CLARIOstar plate reader. The luminescent signal was directly proportional to number of viable cells, the percent of viable cells relative to the DMSO control was then calculated for each assay point. Percent viability relative to DMSO control was plotted against compound concentration and a curve fitted with non-linear regression in GraphPad Prism software. EC50 and IC50 values were calculated using GraphPad Prism software as follows: For EC50 values a non-constrained four-parameter logistic curve fit was used (Sigmoidal, 4PL, X is concentration). For Absolute IC50 values the baseline was constrained to Y=0 (Absolute IC50, X is concentration). Area Under the Curve (AUC): Prism computes area-under-the-curve by the trapezoidal method. The analysis sees a fitted curve as simply a series of connected XY points. Prism simply computes the area under the “curve” defined by connecting the points by straight lines. The units of the AUC are the units of the Y axis times units of the X axis.

In experiment [2] the test system is Mero82 cells. The experiment in a line: Mero82 proliferation and cell viability assay (CTG). Particulars: Mero82 cell line, 144 hours. On the procedure:
Mero 82 cells were trypsinised, counted and plated at 400 cells/well in 200 μl of growth media in 96 well flat bottom tissue culture treated plates. The plated cells were incubated overnight at 37° C., 5% CO2 before being treated with compounds in triplicate for each assay point. 50 μl of the serially diluted compound was added to each well giving a final DMSO concentration of 0.5% per well and a total volume of 250 μl per well. The treated cells were incubated for 144 hours (6 days) at 37° C., 5% CO2. Following compound treatment, the remaining viable cells were detected using the Promega CellTiter-Glo 2.0 assay as follows: 150 μl of media was removed from each of the wells to be assayed and 100 μl of room temperature CellTiter-Glo 2.0 reagent was added. The plate was placed on an orbital shaker at 500 rpm at room temperature for 2 minutes, and then incubated without shaking for a further 10 minutes at room temperature. 150 μl of cell lysate was removed from each well and dispensed into a single well of a white opaque 96 well plate. Luminescence at 545 nm was read using a BMG CLARIOstar plate reader. The luminescent signal was directly proportional to number of viable cells, the percent of viable cells relative to the DMSO control was then calculated for each assay point. Percent viability relative to DMSO control is plotted against compound concentration and a curve fitted with non-linear regression in GraphPad Prism software. IC50 values were calculated using GraphPad Prism software as follows: For Relative IC50 values a non-constrained four-parameter logistic curve fit was used (Sigmoidal, 4PL, X is concentration). For Absolute IC50 values the baseline was constrained to Y=0 (Absolute IC50, X is concentration). Area Under the Curve (AUC): Prism computes area-under-the-curve by the trapezoidal method. The analysis sees a fitted curve as simply a series of connected XY points. Prism simply computes the area under the “curve” defined by connecting the points by straight lines. The units of the AUC are the units of the Y axis times units of the X axis.

Experiment [3] relates to MSTO-211H cells. Briefly: MSTO-211H proliferation and cell viability assay (CTG). Particulars: Homo sapiens, MSTO-211H cell line, 144 hours. On the procedure: MSTO-211H cells were trypsinised, counted and plated at the specified cell density in 200 μl of growth media in 96 well flat bottom tissue culture treated plates. The plated cells were incubated overnight at 37° C., 5% CO2 before being treated with compounds in triplicate for each assay point. 50 μl of the serially diluted compound was added to each well giving a final DMSO concentration of 0.5% per well and a total volume of 250 μl per well. The treated cells were incubated for 144 hours (6 days) at 37° C., 5% CO2. Following compound treatment, the remaining viable cells were detected using the Promega CellTiter-Glo 2.0 assay as follows: 150 μl of media was removed from each of the wells to be assayed and 100 μl of room temperature CellTiter-Glo 2.0 reagent was added. The plate was placed on an orbital shaker at 500 rpm at room temperature for 2 minutes, and then incubated without shaking for a further 10 minutes at room temperature. 150 μl of cell lysate was removed from each well and dispensed into a single well of a white opaque 96 well plate. Luminescence at 545 nm is read using a BMG CLARIOstar plate reader. The luminescent signal was directly proportional to number of viable cells, the percent of viable cells relative to the DMSO control was then calculated for each assay point. Percent viability relative to DMSO control was plotted against compound concentration and a curve fitted with non-linear regression in GraphPad Prism software. IC50 values were calculated using GraphPad Prism software as follows: For Relative IC50 values a non-constrained four-parameter logistic curve fit was used (Sigmoidal, 4PL, X is concentration). For Absolute IC50 values the baseline was constrained to Y=0 (Absolute IC50, X is concentration). Area Under the Curve (AUC): Prism computes area-under-the-curve by the trapezoidal method. The analysis sees a fitted curve as simply a series of connected XY points. Prism simply computes the area under the “curve” defined by connecting the points by straight lines. The units of the AUC are the units of the Y axis times units of the X axis.

As usually defined, the EC50 is the concentration that produces a half-maximal response. A high value points to weaker potency. For the compound `C[C@H](NC(=O)c1cnc2c(C3=CC[C@@H](C(F)(F)F)CC3)cccc2c1)c1ncco1` (single isomer, unassigned) [Compound 19, N-(1-(oxazol-2-yl)ethyl)-8-(4-(trifluoromethyl)cyclohex-1-en-1-yl)quinoline-3-carboxamide], the concentration for a half-maximal effect (EC50) in experiment [1], in experiment [2] and in experiment [3] was below 200 nM throughout.
`C[C@H](NC(=O)c1cnc2c(C3=CC[C@@H](C(F)(F)F)CC3)cccc2c1)c1ncco1` (single isomer, unassigned) [Compound 20, N-(1-(oxazol-2-yl)ethyl)-8-(4-(trifluoromethyl)cyclohex-1-en-1-yl)quinoline-3-carboxamide]: the 50% effective concentration (EC50) in experiment [1] is below 200 nM.
Consider `FC(F)(F)c1ccc(CN2CCC(C3CC(Br)=NO3)CC2)cc1` (stereo not drawn) [Compound 1-2, reference compound], for which the results for the EC50 in experiment [1], in experiment [2] and in experiment [3] were below 200 nM, above 1000 nM and below 200 nM, respectively.
As for `C=CC(=O)Nc1ccc(C)c(Oc2ccc(Cl)cc2)c1` [Compound 1-3, reference compound], the EC50 in experiment [1], in experiment [2] and in experiment [3] was below 200 nM each time.
For `C[C@H](CO)NC(=O)c1cnc2c(C3=CCC(C(F)(F)F)CC3)cccc2c1` (stereo partly drawn) [Compound 7, N—((R)-1-hydroxypropan-2-yl)-8-(4-(trifluoromethyl)cyclohex-1-en-1-yl)quinoline-3-carboxamide], the 50% effective concentration (EC50) in experiment [1], in experiment [2] and in experiment [3] was below 200 nM each time.
On to `O=C(NCc1ncco1)c1cnc2c(C3=CCC(C(F)(F)F)CC3)cccc2c1` (stereo not drawn) [Compound 11, N-(oxazol-2-ylmethyl)-8-(4-(trifluoromethyl)cyclohex-1-en-1-yl)quinoline-3-carboxamide], for which the EC50 in experiment [2] and in experiment [3] was below 200 nM throughout.
With `O=C(NCc1ccn[nH]1)c1cnc2c(C3=CCC(C(F)(F)F)CC3)cccc2c1` (stereo not drawn) [Compound 47, N-((1H-pyrazol-5-yl)methyl)-8-(4-(trifluoromethyl)cyclohex-1-en-1-yl)quinoline-3-carboxamide], the EC50 in experiment [1], in experiment [2] and in experiment [3] was below 200 nM throughout.
As to `COC[C@H](CO)NC(=O)c1cnc2c(C3=CCC(C(F)(F)F)CC3)cccc2c1` (stereo partly drawn) [Compound 62, N—((S)-1-hydroxy-3-methoxypropan-2-yl)-8-(4-(trifluoromethyl)cyclohex-1-en-1-yl)quinoline-3-carboxamide], the EC50 in experiment [1], in experiment [2] and in experiment [3] was below 200 nM each time.
As for `COc1cc(C2=CCC(C(F)(F)F)CC2)c2ncc(C(=O)N[C@H](C)c3ncco3)cc2c1` (stereo partly drawn) [Compound 109, 6-methoxy-N—((R)-1-(oxazol-2-yl)ethyl)-8-(4-(trifluoromethyl)cyclohex-1-en-1-yl)quinoline-3-carboxamide], the half-maximal effective concentration (EC50) in experiment [1], in experiment [2] and in experiment [3] was below 200 nM in each case.
For the compound `COc1cc(C2=CCC(C(F)(F)F)CC2)c2ncc(C(=O)N[C@H](C)CO)cc2c1` (stereo partly drawn) [Compound 110, N—((R)-1-hydroxypropan-2-yl)-6-methoxy-8-(4-(trifluoromethyl)cyclohex-1-en-1-yl)quinoline-3-carboxamide], the 50% effective concentration (EC50) in experiment [2] and in experiment [3] was below 200 nM in each case.
Take `C[C@H](CO)NC(=O)c1cnc2c(C3=CCC4(CC3)CC(F)(F)C4)cccc2c1` [Compound 165, (R)-8-(2,2-difluorospiro[3.5]non-6-en-7-yl)-N-(1-hydroxypropan-2-yl)quinoline-3-carboxamide]: the EC50 in experiment [2] and in experiment [3] was below 200 nM throughout.
`C[C@@H](NC(=O)c1cnc2c(C3=CCC4(CC3)CC4)cccc2c1)c1ncco1` [Compound 166, (R)—N-(1-(oxazol-2-yl)ethyl)-8-(spiro[2.5]oct-5-en-6-yl)quinoline-3-carboxamide]: the EC50 in experiment [2] and in experiment [3] was below 200 nM throughout.

These data come from US20250223306A1, “TEAD INHIBITORS AND METHODS OF USE” (Sporos BioDiscovery, Inc., priority 2022, published 2025).
